From ChEMBL document CHEMBL2074255, “Human intestinal H+/peptide cotransporter. Cloning, functional expression, and chromosomal localization” (J Biol Chem, 1995)
Values belong to the molecule of their own block, whether it stands above or below them. Residues, ends and D or L forms follow the SMILES beside them.

Experiments:
Format in all cases: functional, cell-based
[1] = target: T1, Solute carrier family 15 member 1 (Homo sapiens) (UniProt P46059); assay: TP_TRANSPORTER: inhibition of Gly-Sar uptake (Gly-Sar: 20 uM, Ala-Pro: 10000 uM) in PEPT1-expressing HeLa cells; set-up: scale not given: the % may be the effect or the level left
T1 sequence (whole entry): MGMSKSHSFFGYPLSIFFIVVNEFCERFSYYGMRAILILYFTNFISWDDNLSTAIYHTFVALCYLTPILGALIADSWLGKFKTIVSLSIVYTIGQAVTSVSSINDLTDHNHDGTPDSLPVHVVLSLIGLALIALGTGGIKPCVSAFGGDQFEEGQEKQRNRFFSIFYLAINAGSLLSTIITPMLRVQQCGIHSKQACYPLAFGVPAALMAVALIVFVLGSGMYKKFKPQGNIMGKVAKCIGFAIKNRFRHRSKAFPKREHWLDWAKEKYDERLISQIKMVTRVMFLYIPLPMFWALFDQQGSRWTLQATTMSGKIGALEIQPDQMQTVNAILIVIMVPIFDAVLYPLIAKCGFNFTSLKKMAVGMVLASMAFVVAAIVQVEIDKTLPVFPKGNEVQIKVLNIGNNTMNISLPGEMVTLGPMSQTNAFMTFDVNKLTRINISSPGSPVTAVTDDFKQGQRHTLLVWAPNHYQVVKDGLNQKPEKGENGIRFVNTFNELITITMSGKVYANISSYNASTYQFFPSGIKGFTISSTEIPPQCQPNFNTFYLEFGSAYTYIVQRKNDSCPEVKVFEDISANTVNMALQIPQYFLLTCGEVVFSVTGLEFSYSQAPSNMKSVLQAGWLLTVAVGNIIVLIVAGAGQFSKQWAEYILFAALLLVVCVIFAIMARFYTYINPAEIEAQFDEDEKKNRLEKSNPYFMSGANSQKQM

[2] = target: T1, Solute carrier family 15 member 1 (Homo sapiens); assay: TP_TRANSPORTER: inhibition of Gly-Sar uptake (Gly-Sar: 20 uM, Gly-Gly-Ile: 10000 uM) in PEPT1-expressing HeLa cells; set-up: scale not given: the % may be the effect or the level left
[3] = target: T1, Solute carrier family 15 member 1 (Homo sapiens); assay: TP_TRANSPORTER: inhibition of Gly-Sar uptake (Gly-Sar: 20 uM, Gly-Gly-Pro: 10000 uM) in PEPT1-expressing HeLa cells; set-up: scale not given: the % may be the effect or the level left
[4] = target: T1, Solute carrier family 15 member 1 (Homo sapiens); assay: TP_TRANSPORTER: inhibition of Gly-Sar uptake (Gly-Sar: 20 uM, Gly-Pro: 10000 uM) in PEPT1-expressing HeLa cells; set-up: scale not given: the % may be the effect or the level left
[5] = target: T1, Solute carrier family 15 member 1 (Homo sapiens); assay: TP_TRANSPORTER: inhibition of Gly-Sar uptake (Gly-Sar: 20 uM, Leu-Pro: 10000 uM) in PEPT1-expressing HeLa cells; set-up: scale not given: the % may be the effect or the level left
[6] = substrate: CN(CC(=O)O)C(=O)CN; assay: TP_TRANSPORTER: uptake in PEPT1-expressing HeLa cells

Molecule: C[C@H](N)C(=O)N1CCC[C@H]1C(=O)O (H-Ala-Pro-OH)
Activity [1]: 8%

Molecule: NCC(=O)NCC(=O)N1CCC[C@H]1C(=O)O (H-Gly-Gly-Pro-OH)
Activity [3]: 13%

Molecule: NCC(=O)N1CCC[C@H]1C(=O)O (H-Gly-Pro-OH)
Activity [4]: 7%

B1: Solute carrier family 15 member 1 (Homo sapiens), P46059 (protein)
chain: T1 sequence (whole entry)
Km [6]: 290 µM

Other lines, results leading:

Activity [2]: 10%
Molecule: CC[C@H](C)[C@H](NC(=O)CNC(=O)CN)C(=O)O (H-Gly-Gly-Ile-OH)

Activity [5]: 8%
Molecule: CC(C)C[C@H](N)C(=O)N1CCC[C@H]1C(=O)O (H-Leu-Pro-OH)
